Measured values reported in patent US20210315893A1 (Galapagos NV, priority 2017, published 2021).

Columns and labels:
[1] = biological target: T1, S1PR2 (Homo sapiens, UniProt O95136); assay: S1PR2 binding assay (competition with radioactively labeled S1P, SpA); conditions: membranes from stable cell line over expressing S1PR2, SpA beads; read-out: S1P2 EC50 (nM), S1PR2 binding EC50
T1 construct: expressed in transfected cells
Method: The following assay can be used for determination of S1PR2 binding. The binding assay measures the potential to compete with radioactively labeled S1P for binding to the receptor.
The assay is performed in a96 well plate where the following reagents are added. First 50 μL compound is added into the assay plate, followed by addition of 100 μL ofa mixture consisting of membrane and Scintillation proximity Assay (SpA) beads [mixture consists […] membranes derived from stable cell line over expressing SPR2, 0.5 mg/well Polyvinyltoluene-Wheat Germ-Agglutinin (PVT-WGA) beads (Perkin Elmer, RPNQOO1)]. All components are diluted in assay buffer containing 20 mM Tris pH 7.5; 10 mM MgCl2; 100 mM NaCl; 0.4% BSA FAF; 1 mM Na3VO4) and incubated for 15 min until addition to the assay plate. Subsequently, 50 ul of radioactively labeled S1P is added to the wells (Sphingosine, D-erythro-[3-3H] 1-phosphate; ARC; ART0778). After an incubation for 2 h at room temperature, plates are centrifuged at 2000 rpm during 20 min. Plates are read on a Topcount reader (Perkin Elmer) immediately after centrifugation (readout time, 1 min/well).

[2] = biological target: T2, human GPCR sphingosine 1-phosphate receptor 2 (Homo sapiens, UniProt O95136); assay: S1PR2 antagonist Ca2+ flux assay; format: cell-based; conditions: antagonist mode, CHO-S1PR2 cells, S1P at EC80, Ca2+ fluorescence; read-out: S1P2 EC50 (nM), S1P2 antagonist EC50
T2 construct: host or cells: CHO
T2 sequence (O95136 whole entry): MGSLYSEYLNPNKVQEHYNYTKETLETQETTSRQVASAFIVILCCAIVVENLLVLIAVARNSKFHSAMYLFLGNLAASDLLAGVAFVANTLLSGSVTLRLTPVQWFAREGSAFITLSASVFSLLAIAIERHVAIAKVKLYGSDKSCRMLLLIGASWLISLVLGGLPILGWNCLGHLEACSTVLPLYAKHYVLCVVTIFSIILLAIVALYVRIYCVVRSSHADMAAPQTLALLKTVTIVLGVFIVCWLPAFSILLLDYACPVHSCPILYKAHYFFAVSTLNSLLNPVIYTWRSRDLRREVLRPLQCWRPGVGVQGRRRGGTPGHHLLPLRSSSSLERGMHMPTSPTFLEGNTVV
Method: Triggering of S1PR2 by administration of Sphingosine-1-phosphate leads to a transient increase in intracellular Ca^2+. The Ca^2+ flux assays are measuring the release of Ca^2+ intracellularly by use of a Ca^2+ sensitive fluorescent dye. The assay is firstly run in agonist mode (incubation of compounds alone) to ensure that the Ca^2+ released measured is not caused by the test compound having an agonistic effect. Then the assay is continued in antagonist mode (Sphingosine-1-Phosphate added to incubated medium containing the test compounds).
CHO cells stably overexpressing human GPCR sphingosine 1-phosphate receptor 2 (CHO-S1PR2 Perkin Elmer; ES-594-A) are seeded from a frozen stock in 384 wells sterile microplates (50 μL; 7,500 cells/well) and are incubated overnight at 37° C. and 5% CO2. The next day cells are washed twice with starvation medium (F-12 Ham's medium containing 0.1% BSA (Fatty acid free: FAF)) and left in 25 μL starvation medium for 1 h at 37° C., 5% CO2. After this starvation cells are incubated with 25 μL buffer containing the Ca^2+-sensitive fluorescent dye (0.5 mg Fluo8+125 mg Allura Red in 100 mL of 1% DMSO, in HBSS+20 mM Hepes+5 mM probenecid). The cells are incubated for an additional 1 h after which 10 μL compounds, diluted in HBSS buffer with 20 mM Hepes and 0.1% BSA (FAF), are added to the cells and intracellular Ca2+ changes are immediately measured by reading fluorescence during 3 min (FDSS/pCELL reader). The ratio of the maximal fluorescence over the background fluorescence before compound injection is used to determine compound response.
After readout of the agonist activity, the plates are incubated for 15 min at 37° C. and 5% CO2. Then, cells are stimulated with 10 μL Sphingosine-1-Phosphate (S1P) (Avanti Polar lipids-860492P) at its EC80 concentration. Intracellular Ca2+ changes are immediately measured by reading fluorescence during 3 min (FDSS/pCELL reader). The ratio of the maximal fluorescence over the background fluorescence before compound injection is used to determine compound response.
The obtained ratio's for agonist and antagonist readout were normalized versus vehicle and EC 100 of S1P ascontrols for agonist mode and versus vehicle and […]. From these normalized data EC50 of the compounds are derived.

T1 sequence (O95136 whole entry): as above

SMILES	EC50 [1]	EC50 [2]
N#Cc1cc2[nH]c(Cc3nn(CC(=O)N4CC5(CCOCC5)C4)c(=O)c4ccccc34)nc2cc1OCC(F)F [Compound 239, 6-(2,2-difluoroethoxy)-2-[[3-[2-(7-oxa-2-azaspiro[3.5]nonan-2-yl)-2-oxo-ethyl]-4-oxo-phthalazin-1-yl]methyl]-3H-benzimidazole-5-carbonitrile]	1740 nM	781 nM
CC1(C)OCC(Cn2nc(Cc3nc4cc(Cl)c(OC(F)(F)F)cc4[nH]3)c3ccccc3c2=O)O1 (stereo not drawn) [Compound 38, 4-[[6-chloro-5-(trifluoromethoxy)-1H-benzimidazol-2-yl]methyl]-2-[(2,2-dimethyl-1,3-dioxolan-4-yl)methyl]phthalazin-1-one]	1210 nM	1280 nM
CN1CCCC(Cn2nc(Cc3nc4cc(Cl)c(OC(F)(F)F)cc4[nH]3)c3ccccc3c2=O)C1 (stereo not drawn) [Compound 39, 4-[[6-chloro-5-(trifluoromethoxy)-1H-benzimidazol-2-yl]methyl]-2-[(1-methyl-3-piperidyl)methyl]phthalazin-1-one]	13400 nM	≥ 19900 nM
N#Cc1cc2[nH]c(Cc3nn(CC(=O)NCCS(N)(=O)=O)c(=O)c4ccccc34)nc2cc1OCC(F)F [Compound 229, 2-[4-[[6-cyano-5-(2,2-difluoroethoxy)-1H-benzimidazol-2-yl]methyl]-1-oxo-phthalazin-2-yl]-N-(2-sulfamoylethyl)acetamide]	503 nM	120 nM
N#Cc1cc2nc(Cc3nn(CC(=O)N4CCOCC45CCC5)c(=O)c4ccccc34)[nH]c2cc1OCC(F)F [Compound 189, 6-(2,2-difluoroethoxy)-2-[[3-[2-(6-oxa-9-azaspiro[3.5]nonan-9-yl)-2-oxo-ethyl]-4-oxo-phthalazin-1-yl]methyl]-1H-benzimidazole-5-carbonitrile]	558 nM	143 nM
O=c1c2ccccc2c(Cc2nc3cc(Cl)c(OC(F)(F)F)cc3[nH]2)nn1CC1CCCO1 (stereo not drawn) [Compound 34, 4-[[6-chloro-5-(trifluoromethoxy)-1H-benzimidazol-2-yl]methyl]-2-(THF-2-ylmethyl)phthalazin-1-one]	5190 nM	4340 nM
CC1(Cn2nc(Cc3nc4cc(Cl)c(OC(F)(F)F)cc4[nH]3)c3ccccc3c2=O)COC1 [Compound 36, 4-[[6-chloro-5-(trifluoromethoxy)-1H-benzimidazol-2-yl]methyl]-2-[(3-methyloxetan-3-yl)methyl]phthalazin-1-one]	100000 nM	≥ 19900 nM
CCS(=O)(=O)C1CCN(C(=O)Cn2nc(Cc3nc4cc(OCC(F)F)c(C#N)cc4[nH]3)c3ccccc3c2=O)CC1 [Compound 240, 6-(2,2-difluoroethoxy)-2-[[3-[2-(4-ethylsulfonyl-1-piperidyl)-2-oxo-ethyl]-4-oxo-phthalazin-1-yl]methyl]-3H-benzimidazole-5-carbonitrile]	1300 nM	345 nM
N#Cc1cc2[nH]c(Cc3nn(CC(=O)NCCC(F)(F)F)c(=O)c4ccccc34)nc2cc1OCC(F)F [Compound 224, 2-[4-[[6-cyano-5-(2,2-difluoroethoxy)-1H-benzimidazol-2-yl]methyl]-1-oxo-phthalazin-2-yl]-N-(3,3,3-trifluoropropyl)acetamide]	232 nM	19.6 nM
N#Cc1cc2[nH]c(Cc3nn(CC(=O)N4CCCC(O)C4)c(=O)c4ccccc34)nc2cc1OCC(F)F (stereo not drawn) [Compound 231, 6-(2,2-difluoroethoxy)-2-[[3-[2-(3-hydroxy-1-piperidyl)-2-oxo-ethyl]-4-oxo-phthalazin-1-yl]methyl]-3H-benzimidazole-5-carbonitrile]	453 nM	77.9 nM
O=c1c2ccccc2c(Cc2nc3cc(Cl)c(OC(F)(F)F)cc3[nH]2)nn1CC1CCC1 [Compound 28, 4-[[6-chloro-5-(trifluoromethoxy)-1H-benzimidazol-2-yl]methyl]-2-(cyclobutylmethyl)phthalazin-1-one]	33300 nM	1490 nM
O=c1c2ccccc2c(Cc2nc3cc(Cl)c(OC(F)(F)F)cc3[nH]2)nn1CC1CCCNC1 (stereo not drawn) [Compound 58, 4-[[6-chloro-5-(trifluoromethoxy)-1H-benzimidazol-2-yl]methyl]-2-(3-piperidylmethyl)phthalazin-1-one]	1100 nM	890 nM
N#Cc1cc2[nH]c(Cc3nn(CC(=O)NC(C#N)C4CC4)c(=O)c4ccccc34)nc2cc1OCC(F)F (stereo not drawn) [Compound 226, N-[cyano-(cyclopropyl)methyl]-2-[4-[[6-cyano-5-(2,2-difluoroethoxy)-1H-benzimidazol-2-yl]methyl]-1-oxo-phthalazin-2-yl]acetamide]	552 nM	66.2 nM
CCOc1cc2nc(Cc3nn(CC(=O)O)c(=O)c4ccccc34)[nH]c2cc1F [Compound 129, 2-[4-[(5-ethoxy-6-fluoro-1H-benzimidazol-2-yl)methyl]-1-oxo-phthalazin-2-yl]acetic acid]	1390 nM	79.3 nM
CCOc1cc2nc(Cc3nn(CC(=O)NS(C)(=O)=O)c(=O)c4ccccc34)[nH]c2cc1F [Compound 247, 2-[4-[(5-ethoxy-6-fluoro-1H-benzimidazol-2-yl)methyl]-1-oxo-phthalazin-2-yl]-N-methylsulfonyl-acetamide]	2470 nM	87.9 nM
N#Cc1cc2[nH]c(Cc3nn(CC(=O)NCC(F)(F)CO)c(=O)c4ccccc34)nc2cc1OCC(F)F [Compound 228, 2-[4-[[6-cyano-5-(2,2-difluoroethoxy)-1H-benzimidazol-2-yl]methyl]-1-oxo-phthalazin-2-yl]-N-(2,2-difluoro-3-hydroxypropyl)acetamide]	52.5 nM	21.1 nM
N#Cc1cc2[nH]c(Cc3nn(CC(=O)NCC(F)F)c(=O)c4ccccc34)nc2cc1OCC(F)F [Compound 223, 2-[4-[[6-cyano-5-(2,2-difluoroethoxy)-1H-benzimidazol-2-yl]methyl]-1-oxo-phthalazin-2-yl]-N-(2,2-difluoroethyl)acetamide]	330 nM	68.8 nM
N#Cc1cc2[nH]c(Cc3nn(CC(=O)NCC4CC(F)(F)C4)c(=O)c4ccccc34)nc2cc1OCC(F)F [Compound 232, 2-[4-[[6-cyano-5-(2,2-difluoroethoxy)-1H-benzimidazol-2-yl]methyl]-1-oxo-phthalazin-2-yl]-N-[(3,3-difluorocyclobutyl)methyl]acetamide]	122 nM	16.3 nM
CN(C)C(=O)CN(C)C(=O)Cn1nc(Cc2nc3cc(OCC(F)F)c(C#N)cc3[nH]2)c2ccccc2c1=O [Compound 241, 2-[4-[[6-cyano-5-(2,2-difluoroethoxy)-1H-benzimidazol-2-yl]methyl]-1-oxo-phthalazin-2-yl]-N-[2-(dimethylamino)-2-oxo-ethyl]-N-methyl-acetamide]	372 nM	47.2 nM
O=c1c2ccccc2c(Cc2nc3cc(Cl)c(OC(F)(F)F)cc3[nH]2)nn1CC1CCCN1 (stereo not drawn) [Compound 55, 4-[[6-chloro-5-(trifluoromethoxy)-1H-benzimidazol-2-yl]methyl]-2-(pyrrolidin-2-ylmethyl)phthalazin-1-one]	4570 nM	1460 nM
CS(=O)(=O)NC(=O)Cn1nc(Cc2nc3cc(OCC(F)F)c(Cl)cc3[nH]2)c2cc(C#N)ccc2c1=O [Compound 245, 2-[4-[[6-chloro-5-(2,2-difluoroethoxy)-1H-benzimidazol-2-yl]methyl]-6-cyano-1-oxo-phthalazin-2-yl]-N-methylsulfonyl-acetamide]	609 nM	14.3 nM
